Results taken from article PMC7768359, “Synthesis of Platinum(II) Complexes with Some 1-Methylnitropyrazoles and In Vitro Research on Their Cytotoxic Activity” (Pharmaceuticals, 2020).

Experiments:
HL-60 cells = assay: Cell cycle analysis (propidium iodide, flow cytometry); type: cell-based, human; settings: 80 µM, 48 h
Procedure: To establish how compounds 1 and 2 influence the cell cycle and cell death, the HL-60 human promyelocytic leukemia cell line was used. The results are outlined in the Figure 7 and Figure 8, respectively. […] This led to disturbances in the cell cycle progression, expressed as a significant decrease in G0/G1 and S phase, compared to the untreated control (Figure 7).
Cultured HL-60 cells (human acute promyelocytic leukemia) were seeded at a density of 2 × 10^5 cells/mL of culture medium on 24-well plates (Corning, NY, USA) to a final volume of 2 mL. […] The stock solutions of platinum derivatives were prepared as described above.
After 48 h of incubation, the cells were collected and washed in phosphate-buffered saline (PBS; HIIET, Wroclaw, Poland) supplemented with 2% of fetal bovine serum and counted in a hemocytometer. Then, the cells (1 × 10^6 per sample) were washed twice in cold PBS and fixed for 24 h in 70% ethanol at −20 °C. Following this, the cells were washed twice in PBS and incubated with RNAse (8 μg/mL, Fermentas GmbH, St. Leon-Rot, Germany) at 37 °C for 1 h. Finally, the cells were stained for 30 min with propidium iodide (0.5 mg/mL; Sigma-Aldrich, Steinheim, Germany) at 4 °C and the cellular DNA content was determined using a BD LSR Fortessa instrument (Becton Dickinson, San Jose, CA, USA) and WinMDI 2.8 software. The experiment was repeated at least three times.

[1] = Qualitative solubility in water; type: physicochemical
Procedure: A solution of 254 mg (2 mmol) of 1-methyl-4-nitropyrazole in 15 mL of warm water was mixed with a solution of 415 mg (1 mmol) of K2PtCl4 in 5 mL of water. The reaction mixture was maintained in darkness at 25 °C and monitored periodically by TLC until the absence of free ligand (app. 3 weeks). Then, the yellow precipitate was filtered off and dried, giving 480 mg (92%) of the crude mixture, which mainly consisted of two individual Pt complexes (TLC). […] Combustion and spectral analyses for the cis complex 1: Elemental analysis for formula C8H10N6O4Cl2Pt of compound 1: Calculated/Found (%): C 18.47/18.80, H 1.94/1.89, N 16.16/15.97, Cl 13.63/13.70. ^1H NMR (300.15 MHz, acetone-d6): δ[ppm] […] Combustion and spectral analyses for the trans complex 2: Elemental analysis for formula C8H10N6O4Cl2Pt of the trans-complex 2: Calculated/Found (%): C 18.47/18.76, H 1.94/1.84, N 16.16/15.86, Cl 13.63/13.93. ^1H NMR (300.15 MHz, acetone-d6): δ[ppm] […] Analysis of Mass Spectrum (ESI-MS) of both complexes 1 and 2: The calculated value of the parent peak mass for the formula C8H10N6O4Cl2Pt was 518.9789 u.

[2] = Isomerization of complexes in solution; type: physicochemical; settings: chloroform, acetone, DMSO, DMF
Text: Additionally, it is worth adding that complexation with 1-methyl-3-nitropyrazole, was unsuccessful, probably because of the steric hindrance of both methyl and nitro groups that constrain access to free pair of electrons of pyrazole nitrogen. Besides, the electrostatic repelling of the approaching tetrachloroplatinate anion by electron dense oxygen atoms of the nitro group may also be an important factor that can hinder and/or prevent the formation of a complex. […] The reason is that both symmetric and antisymmetric valence vibrations of cis Pt(II)complexes are active, contrary to trans isomers in which case only antisymmetric vibration is active.
A solution of 254 mg (2 mmol) of 1-methyl-5-nitropyrazole in 3 mL of acetone was mixed with a solution of 415 mg (1 mmol) of K2PtCl4 in 5 mL of water and maintained in darkness at 25 °C until the reaction completion (TLC, app. 3 days). […] Combustion and spectral analyses for the cis complex 3: Elemental analysis for formula C8H10N6O4Cl2Pt of compound 3: Calculated/Found (%): C 18.47/17.97, H 1.94/1.66, N 16.16/16.50, Cl 13.63/13.87. ^1H NMR (300.15 MHz, acetone-d6): δ[ppm] […] Combustion and spectral analyses for the trans complex 4: Elemental analysis for formula C8H10N6O4Cl2Pt of trans-complex 4: Calculated/Found (%): C 18.47/18.14, H 1.94/1.65, N 16.16/15.89, Cl 13.63/13.82. ^1H NMR (300.15 MHz, acetone-d6): δ[ppm] […]

SMILES	cell death (Sub-G1) and cell cycle progression of HL-60 cells (HL-60 cells)	solubility in water [1]	isomerization in solution [2]
Cn1cc([N+](=O)[O-])c[n+]1[Pt@SP2-2]([Cl])([Cl])[n+]1cc([N+](=O)[O-])cn1C [Compound 1, cis-dichloridobis(1-methyl-4-nitropyrazole)platinum(II)]	induced cell death (Sub-G1)	poorly in water	
Cn1cc([N+](=O)[O-])c[n+]1[Pt@SP3-2]([Cl])([Cl])[n+]1cc([N+](=O)[O-])cn1C [Compound 2, trans-dichloridobis(1-methyl-4-nitropyrazole)platinum(II)]		very poorly in water	
Cn1c([N+](=O)[O-])cc[n+]1[Pt@SP2-2]([Cl])([Cl])[n+]1ccc([N+](=O)[O-])n1C [Compound 3, cis-dichloridobis(1-methyl-5-nitropyrazole)platinum(II)]			occurred slowly in chloroform or acetone solutions but much faster in more polar aprotic solvents (DMSO, DMF)
Cn1c([N+](=O)[O-])cc[n+]1[Pt@SP3-2]([Cl])([Cl])[n+]1ccc([N+](=O)[O-])n1C [Compound 4, trans-dichloridobis(1-methyl-5-nitropyrazole)platinum(II)]			occurred slowly in chloroform or acetone solutions but much faster in more polar aprotic solvents (DMSO, DMF)
